Results reported in the NIST ThermoML archive (doi:10.1016/j.jct.2012.06.012).

Assay: xn = mol fraction of the nth substance listed
Settings: Liquid, Vibrating tube method

CCCCCCCCCC [decane] + CCO
Settings | mass density [kg/m3]
323 K, 1000 kPa, x2 = 0.1011 | 707.24
323 K, 2000 kPa, x2 = 0.1011 | 708.19
323 K, 3000 kPa, x2 = 0.1011 | 709.13
323 K, 4000 kPa, x2 = 0.1011 | 710.05
323 K, 5000 kPa, x2 = 0.1011 | 710.96
323 K, 6000 kPa, x2 = 0.1011 | 711.86
323 K, 7000 kPa, x2 = 0.1011 | 712.75
323 K, 8000 kPa, x2 = 0.1011 | 713.62
323 K, 9000 kPa, x2 = 0.1011 | 714.5
323 K, 10000 kPa, x2 = 0.1011 | 715.37
323 K, 11000 kPa, x2 = 0.1011 | 716.23
323 K, 12000 kPa, x2 = 0.1011 | 717.09
323 K, 13000 kPa, x2 = 0.1011 | 717.94
323 K, 14000 kPa, x2 = 0.1011 | 718.79
323 K, 15000 kPa, x2 = 0.1011 | 719.61
323 K, 16000 kPa, x2 = 0.1011 | 720.42
323 K, 17000 kPa, x2 = 0.1011 | 721.22
323 K, 18000 kPa, x2 = 0.1011 | 722.01
323 K, 19000 kPa, x2 = 0.1011 | 722.76
323 K, 20000 kPa, x2 = 0.1011 | 723.51
323.03 K, 1000 kPa, x2 = 0.7526 | 729.67
323.03 K, 2000 kPa, x2 = 0.7526 | 730.66
323.03 K, 3000 kPa, x2 = 0.7526 | 731.64
323.03 K, 4000 kPa, x2 = 0.7526 | 732.61
323.03 K, 5000 kPa, x2 = 0.7526 | 733.56
323.03 K, 6000 kPa, x2 = 0.7526 | 734.49
323.03 K, 7000 kPa, x2 = 0.7526 | 735.43
323.03 K, 8000 kPa, x2 = 0.7526 | 736.37
323.03 K, 9000 kPa, x2 = 0.7526 | 737.3
323.03 K, 10000 kPa, x2 = 0.7526 | 738.24
323.03 K, 11000 kPa, x2 = 0.7526 | 739.17
323.03 K, 12000 kPa, x2 = 0.7526 | 740.08
323.03 K, 13000 kPa, x2 = 0.7526 | 741
323.03 K, 14000 kPa, x2 = 0.7526 | 741.9
323.03 K, 15000 kPa, x2 = 0.7526 | 742.78
323.03 K, 16000 kPa, x2 = 0.7526 | 743.66
323.03 K, 17000 kPa, x2 = 0.7526 | 744.51
323.03 K, 18000 kPa, x2 = 0.7526 | 745.35
323.03 K, 19000 kPa, x2 = 0.7526 | 746.18
323.03 K, 20000 kPa, x2 = 0.7526 | 746.98
323.06 K, 1000 kPa, x2 = 0.2507 | 709.58
323.06 K, 2000 kPa, x2 = 0.2507 | 710.54
323.06 K, 3000 kPa, x2 = 0.2507 | 711.48
323.06 K, 4000 kPa, x2 = 0.2507 | 712.41
323.06 K, 5000 kPa, x2 = 0.2507 | 713.33
323.06 K, 6000 kPa, x2 = 0.2507 | 714.23
323.06 K, 7000 kPa, x2 = 0.2507 | 715.12
323.06 K, 8000 kPa, x2 = 0.2507 | 716.01
323.06 K, 9000 kPa, x2 = 0.2507 | 716.9
323.06 K, 10000 kPa, x2 = 0.2507 | 717.78
323.06 K, 11000 kPa, x2 = 0.2507 | 718.65
323.06 K, 12000 kPa, x2 = 0.2507 | 719.53
323.06 K, 13000 kPa, x2 = 0.2507 | 720.39
323.06 K, 14000 kPa, x2 = 0.2507 | 721.24
323.06 K, 15000 kPa, x2 = 0.2507 | 722.08
323.06 K, 16000 kPa, x2 = 0.2507 | 722.91
323.06 K, 17000 kPa, x2 = 0.2507 | 723.72
323.06 K, 18000 kPa, x2 = 0.2507 | 724.51
323.06 K, 19000 kPa, x2 = 0.2507 | 725.28
323.06 K, 20000 kPa, x2 = 0.2507 | 726.04
332.86 K, 1000 kPa, x2 = 0.0937 | 699.25
332.86 K, 1000 kPa, x2 = 0.9014 | 736.03
332.86 K, 2000 kPa, x2 = 0.0937 | 700.26
332.86 K, 2000 kPa, x2 = 0.9014 | 737.11
332.86 K, 3000 kPa, x2 = 0.0937 | 701.26
332.86 K, 3000 kPa, x2 = 0.9014 | 738.18
332.86 K, 4000 kPa, x2 = 0.0937 | 702.24
332.86 K, 4000 kPa, x2 = 0.9014 | 739.22
332.86 K, 5000 kPa, x2 = 0.0937 | 703.21
332.86 K, 5000 kPa, x2 = 0.9014 | 740.19
332.86 K, 6000 kPa, x2 = 0.0937 | 704.16
332.86 K, 6000 kPa, x2 = 0.9014 | 741.29
332.86 K, 7000 kPa, x2 = 0.0937 | 705.1
332.86 K, 7000 kPa, x2 = 0.9014 | 742.31
332.86 K, 8000 kPa, x2 = 0.0937 | 706.03
332.86 K, 8000 kPa, x2 = 0.9014 | 743.33
332.86 K, 9000 kPa, x2 = 0.0937 | 706.94
332.86 K, 9000 kPa, x2 = 0.9014 | 744.36
332.86 K, 10000 kPa, x2 = 0.0937 | 707.85
332.86 K, 10000 kPa, x2 = 0.9014 | 745.34
332.86 K, 11000 kPa, x2 = 0.0937 | 708.77
332.86 K, 11000 kPa, x2 = 0.9014 | 746.35
332.86 K, 12000 kPa, x2 = 0.0937 | 709.67
332.86 K, 12000 kPa, x2 = 0.9014 | 747.33
332.86 K, 13000 kPa, x2 = 0.0937 | 710.57
332.86 K, 13000 kPa, x2 = 0.9014 | 748.31
332.86 K, 14000 kPa, x2 = 0.0937 | 711.45
332.86 K, 14000 kPa, x2 = 0.9014 | 749.26
332.86 K, 15000 kPa, x2 = 0.0937 | 712.31
332.86 K, 15000 kPa, x2 = 0.9014 | 750.21
